Reference: patent US7618663B2, “Anti-arthritic herbal composition and method thereof” (priority 2004, dated 2009)
Marks after values point to notes of the source that are not given here.

Legend:
[1] = system: formaldehyde-induced arthritis; experiment: formaldehyde-induced acute arthritis, paw edema; format: in vivo, rat; conditions: dose 30 mg/kg; given 24 hours before formalin and continued for 13 days; mean ± S.E.M., six rats
Experimental: Formaldehyde-induced arthritis was produced in rats by injecting 0.1 ml of 2% formaldehyde in the hind paw under the planter aponeurosis. Paw volume was measured daily for 13 days. The test composition was given 24 hours before formalin injection and continued for 13 days.

stomach = conditions: known side effect of the drug; cited from earlier work
[2] = system: formalin arthritis and granuloma pouch; conditions: cited from earlier work

Row | Compound | % Edema (Swelling) [1] | ulcer in the stomach (stomach) | mortality rate ([2]; albino rats) | gastric side effects-ulcer and bleeding ([2]; rats)
1 | CC(C)Cc1ccc(C(C)C(=O)O)cc1 (stereo not shown) [Ibuprofen] | 27.80 ± 4.2^b % | causes ulcer in the stomach | – | –
2 | C[C@H]1C[C@H]2[C@@H]3CCC4=CC(=O)C=C[C@]4(C)[C@@]3(F)[C@@H](O)C[C@]2(C)[C@@]1(O)C(=O)CO [betamethasone] | – | – | 12 out of 29 | 10 out of 12
